In experiment [1] the target is T1, Kappa (h) (KOP) (agonist radioligand) (Homo sapiens, UniProt P41145).
T1 construct: CEREP (Eurofins, France), contract panel
Kind of experiment: Radioligand binding panel (Eurofins/CEREP), kappa opioid. Particulars: 10^−5 M; % inhibition of control specific binding; read-out: % Inhibition at 10^−5M Benedin. The method, then: (§1) Benedin was tested at 10^−5 M, calculated as a % inhibition of control specific binding of a radioactively labeled ligand specific for each target.
(§2) This binding profile panel was broadly defined with roughly an equal number of selective, central and peripheral therapeutically relevant targets, including native animal tissues, radioligands and specific enzymes involved in cell cycle regulation in accordance with Eurofins Standard Operating Procedure.
(§3) For radioligand binding experiments, the half maximal inhibitory concentration (IC50) and the half maximal effective concentration (EC50) values were determined (via computer software) by nonlinear regression analysis of the competition curves using Hill equation curve fitting. The inhibition constants (Ki) were calculated using the Cheng-Prusoff equation (Ki=IC50/(1+(L/KD)), where L is the concentration of radioligand in the assay, and KD is the affinity of the radioligand for the receptor.^60
(§4) The results are expressed as a % control specific binding ([measured specific binding/control specific binding]×100) and as a % inhibition of control specific binding (100−[(measured specific binding/control specific binding)×100] obtained in the presence of the test compounds. […]

In experiment [2] the target is T2, mu (h) (MOP) (agonist radioligand) (Homo sapiens, UniProt P35372).
T2 construct: CEREP (Eurofins, France), contract panel
T2 sequence (P35372 whole entry): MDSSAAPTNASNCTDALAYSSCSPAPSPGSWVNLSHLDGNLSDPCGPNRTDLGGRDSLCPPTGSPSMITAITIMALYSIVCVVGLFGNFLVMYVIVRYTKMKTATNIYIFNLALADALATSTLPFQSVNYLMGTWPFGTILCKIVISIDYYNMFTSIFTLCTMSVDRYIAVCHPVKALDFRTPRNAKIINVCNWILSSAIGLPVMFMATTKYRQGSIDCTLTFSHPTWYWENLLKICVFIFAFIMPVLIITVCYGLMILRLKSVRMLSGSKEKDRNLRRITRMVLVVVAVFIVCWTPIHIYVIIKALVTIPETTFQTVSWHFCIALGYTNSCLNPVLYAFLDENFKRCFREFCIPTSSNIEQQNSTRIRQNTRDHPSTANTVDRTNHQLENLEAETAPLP
Kind of experiment: Radioligand binding panel (Eurofins/CEREP), mu opioid. Conditions: 10^−5 M; % inhibition of control specific binding; read-out: % Inhibition at 10^−5M Benedin. The method, then:
as §1, §2, §3, §4

Experiment [3] deals with T3, RXFP3 (h) (agonist radioligand) (Homo sapiens, UniProt Q9NSD7).
T3 sequence (Q9NSD7 1-469): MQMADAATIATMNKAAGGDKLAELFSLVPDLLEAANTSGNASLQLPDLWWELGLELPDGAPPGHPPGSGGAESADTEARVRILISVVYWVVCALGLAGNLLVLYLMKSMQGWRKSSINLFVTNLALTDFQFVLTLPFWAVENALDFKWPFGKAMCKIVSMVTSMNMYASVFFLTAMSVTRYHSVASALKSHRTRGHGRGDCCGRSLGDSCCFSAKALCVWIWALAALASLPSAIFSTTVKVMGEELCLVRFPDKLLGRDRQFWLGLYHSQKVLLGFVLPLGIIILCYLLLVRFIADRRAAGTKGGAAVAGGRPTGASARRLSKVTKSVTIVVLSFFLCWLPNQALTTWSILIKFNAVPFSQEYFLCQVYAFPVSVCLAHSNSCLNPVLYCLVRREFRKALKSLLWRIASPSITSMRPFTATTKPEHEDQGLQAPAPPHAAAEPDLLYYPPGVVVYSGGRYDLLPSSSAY
Kind of experiment: GPCR Biosensor cAMP Hunter assay, RXFP3. It is filed as cell-based. The protocol: Benedin is found to weakly bind with RXFP4 and RXFP3 receptors (Study FR095-0024749-Q Eurofins/leadHunter Jun. 25, 2021; unpublished data) (Table 2).
In these assays' compounds were tested in agonist and antagonist mode with the GPCR Biosensor Assays and match to this design:
1. cAMP Hunter cell lines were expanded from freezer stocks according to standard procedures.
2. Cells were seeded in a total volume of 20 μL into white walled, 384-well microplates and incubated at 37° C. for the appropriate time prior to testing.
3. cAMP modulation was determined using the DiscoverX HitHunter CAMP XS+assay.
1. For agonist determination, cells were incubated with sample in the presence of EC80 forskolin to induce response.
2. Media was aspirated from cells and replaced with 15 μL 2:1 HBSS/10 mM Hepes: CAMP XS+Ab reagent. […]
2. Microplates were read following signal generation with a PerkinElmer Envision™ instrument for chemiluminescent signal detection.
5. For Gi agonist mode assays, percentage activity is calculated using the following formula: % Activity=100%×(1−(mean RLU of test sample-mean RLU of MAX control)/(mean RLU of vehicle control−mean RLU of MAX control)).
8. For Gi antagonist or negative allosteric mode assays, percentage inhibition is calculated using the following formula: % Inhibition=100%×(mean RLU of test sample−mean RLU of EC80 control)/(mean RLU of forskolin positive control−mean RLU of […]

Consider one compound from patent publication US20240316023A1, “BENEDIN, PIPERIDINE, 2-BENZHYDRYL-3-HYDROXY-N-METHYL-, HYDROCHLORIDE AND DERIVATIVES THEREOF FOR USE IN TREATING KLEINE-LEVIN SYNDROME” (priority 2021, published 2024).

T1 sequence (P41145 whole entry): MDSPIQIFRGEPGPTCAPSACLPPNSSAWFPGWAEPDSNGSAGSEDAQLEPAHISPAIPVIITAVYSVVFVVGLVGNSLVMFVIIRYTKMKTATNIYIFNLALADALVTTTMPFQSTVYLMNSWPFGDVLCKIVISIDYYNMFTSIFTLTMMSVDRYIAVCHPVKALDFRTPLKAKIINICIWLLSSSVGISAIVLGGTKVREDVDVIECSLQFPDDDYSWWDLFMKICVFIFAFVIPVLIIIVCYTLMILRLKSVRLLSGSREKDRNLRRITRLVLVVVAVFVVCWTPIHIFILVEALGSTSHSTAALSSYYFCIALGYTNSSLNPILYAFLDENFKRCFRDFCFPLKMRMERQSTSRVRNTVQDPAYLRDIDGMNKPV

For the compound `CN1CCCC(O)C1C(c1ccccc1)c1ccccc1` (stereo not shown) [Benedin, 2-benzhydryl-3-hydroxy-N-methyl-piperidine], the inhibition at 10 µM in experiment [1] was 39.2%; in experiment [2] it was 24.4%; in experiment [3] (10^−5 M, read-out: % Inhibition at 10^−5M Benedin), 21.4%. Further, the “% Inhibition at 10^−5M Benedin” value in experiment [3] was “weakly bind”.
